Results as given in paper PMC4245160 (ACS Chemical Biology, 2014).

Target: T1, mouse OR-I7 (Mus musculus, UniProt Q9QWU6)
T1 sequence (Q9QWU6 1-327): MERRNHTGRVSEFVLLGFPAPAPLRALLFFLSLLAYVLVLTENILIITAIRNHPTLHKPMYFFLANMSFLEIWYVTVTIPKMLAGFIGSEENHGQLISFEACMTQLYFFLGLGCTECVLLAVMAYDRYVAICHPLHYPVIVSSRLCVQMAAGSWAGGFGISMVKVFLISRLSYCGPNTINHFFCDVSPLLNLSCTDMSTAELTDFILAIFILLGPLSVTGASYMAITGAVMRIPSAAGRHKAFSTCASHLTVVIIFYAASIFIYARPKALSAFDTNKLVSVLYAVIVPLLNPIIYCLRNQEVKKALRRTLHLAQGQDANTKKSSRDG
Test: GloSensor cAMP assay in Hana3A cells expressing recombinant receptor
Format: cell-based

| Compound | EC50 |
| --- | --- |
| CCCCCCC(F)(F)C=O [compound 2, 2,2-difluorooctanal] | ~10 µM |
| CCCCCCCC=O [compound 1, octanal] | ~1.5 µM |
